Like-named read-outs stand apart in the source and are kept apart here.
Tests used:
human recombinant HDAC1 = biological target: T1, human recombinant HDAC1 (Homo sapiens, UniProt Q13547); experiment: HDAC1 enzyme activity inhibition (HDAC Fluorimetric Drug Discovery Kit); format: biochemical; settings: read-out: HDAC1
T1 construct: purchased Enzo Life Science, Inc. BML-SE456
Outline: (§1)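 Five-fold compound dilutions incubated with […] recombinant enzyme and 10 μM fluorogenic Fluor de Lys substrate, 60 min at 30° C. Fluor de Lys Developer II then added for 30 min to generate the fluorescent read-out.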

human recombinant HDAC6 = biological target: T2, human recombinant HDAC6 (Homo sapiens, UniProt Q9UBN7); experiment: HDAC6 enzyme activity inhibition (HDAC Fluorimetric Drug Discovery Kit); format: biochemical
T2 construct: purchased Calbiochem Inc. 382180
T2 sequence (Q9UBN7 1-1215): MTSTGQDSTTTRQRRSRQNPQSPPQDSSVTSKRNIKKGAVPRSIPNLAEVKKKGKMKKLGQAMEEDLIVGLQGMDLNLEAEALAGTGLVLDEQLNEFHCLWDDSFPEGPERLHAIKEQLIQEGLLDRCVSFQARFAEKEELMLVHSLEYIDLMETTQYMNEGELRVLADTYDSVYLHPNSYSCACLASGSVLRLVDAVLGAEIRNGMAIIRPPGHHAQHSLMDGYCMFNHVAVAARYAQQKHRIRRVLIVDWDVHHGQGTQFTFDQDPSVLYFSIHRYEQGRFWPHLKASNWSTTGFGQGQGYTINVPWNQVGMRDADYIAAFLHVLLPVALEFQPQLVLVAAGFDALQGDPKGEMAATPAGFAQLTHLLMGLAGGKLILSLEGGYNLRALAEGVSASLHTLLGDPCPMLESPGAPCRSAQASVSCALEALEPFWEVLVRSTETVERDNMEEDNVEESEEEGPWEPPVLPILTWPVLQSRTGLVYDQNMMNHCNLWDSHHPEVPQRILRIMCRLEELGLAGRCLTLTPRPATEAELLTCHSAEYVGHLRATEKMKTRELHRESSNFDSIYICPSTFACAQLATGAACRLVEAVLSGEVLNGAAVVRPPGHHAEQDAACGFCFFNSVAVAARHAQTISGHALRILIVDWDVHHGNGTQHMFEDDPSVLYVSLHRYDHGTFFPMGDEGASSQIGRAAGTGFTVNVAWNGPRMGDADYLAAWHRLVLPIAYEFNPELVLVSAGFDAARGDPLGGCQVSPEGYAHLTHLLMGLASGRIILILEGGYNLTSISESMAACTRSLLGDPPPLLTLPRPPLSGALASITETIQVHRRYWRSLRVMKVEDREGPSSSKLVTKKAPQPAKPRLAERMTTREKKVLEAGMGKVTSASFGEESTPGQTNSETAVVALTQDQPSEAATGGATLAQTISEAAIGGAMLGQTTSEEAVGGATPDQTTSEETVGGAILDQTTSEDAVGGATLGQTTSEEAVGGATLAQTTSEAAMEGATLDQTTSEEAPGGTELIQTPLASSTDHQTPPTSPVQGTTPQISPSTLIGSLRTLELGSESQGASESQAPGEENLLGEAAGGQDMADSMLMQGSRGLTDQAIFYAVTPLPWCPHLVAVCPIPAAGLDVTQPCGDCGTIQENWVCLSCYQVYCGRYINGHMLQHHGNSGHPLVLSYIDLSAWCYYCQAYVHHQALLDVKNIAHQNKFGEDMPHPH
Outline: as §1

[1] = human recombinant HDAC1, Fluor de Lys substrate, 30° C. 60 minutes
[2] = human recombinant HDAC6, same protocol as HDAC1
[3] = human recombinant HDAC1, IC50 calculated with GraphPad Prism
[4] = human recombinant HDAC6, IC50 calculated with GraphPad Prism

T1 sequence (Q13547 whole entry): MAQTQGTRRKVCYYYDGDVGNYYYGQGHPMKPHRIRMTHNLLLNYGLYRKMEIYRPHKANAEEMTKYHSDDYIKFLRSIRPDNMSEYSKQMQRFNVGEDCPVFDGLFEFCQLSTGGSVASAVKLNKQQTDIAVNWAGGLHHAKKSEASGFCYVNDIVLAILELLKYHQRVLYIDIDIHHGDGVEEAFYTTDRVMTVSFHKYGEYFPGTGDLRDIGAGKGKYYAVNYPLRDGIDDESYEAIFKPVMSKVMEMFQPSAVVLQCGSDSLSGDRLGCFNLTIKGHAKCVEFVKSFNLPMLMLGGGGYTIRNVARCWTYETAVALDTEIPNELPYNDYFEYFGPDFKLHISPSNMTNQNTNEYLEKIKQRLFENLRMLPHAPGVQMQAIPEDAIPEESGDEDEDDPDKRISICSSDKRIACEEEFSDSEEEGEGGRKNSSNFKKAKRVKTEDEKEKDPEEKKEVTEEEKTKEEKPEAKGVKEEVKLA

Row | IC50 (human recombinant HDAC1; [1]) [nM] | HDAC6 selectivity (fold) (human recombinant HDAC6; HDAC6 over HDAC1) | IC50 (human recombinant HDAC6; [2]) [nM] | IC50 (human recombinant HDAC1; [3]) [nM] | HDAC6 selectivity (fold) (human recombinant HDAC6; HDAC1 IC50 / HDAC6 IC50) | IC50 (human recombinant HDAC6; [4]) [nM] | Compound
1 | > 50000 | 3546 | 14.1 |  |  |  | CCN1CCN(c2cc(-c3cn(Cc4ccc(-c5nnc(C(F)F)o5)cn4)nn3)ccn2)CC1 [Compound 4591, 2-(difluoromethyl)-5-(6-((4-(2-(4-ethylpiperazin-1-yl)pyridin-4-yl)-1H-1,2,3-triazol-1-yl)methyl)pyridin-3-yl)-1,3,4-oxadiazole]
2 | > 50000 | 625 | 80 |  |  |  | CN1CCN(c2cccc(-c3cn(Cc4ncc(-c5nnc(C(F)F)o5)cc4F)nn3)c2)CC1 [Compound 18924, 2-(difluoromethyl)-5-(5-fluoro-6-((4-(3-(4-methylpiperazin-1-yl)phenyl)-1H-1,2,3-triazol-1-yl)methyl)pyridin-3-yl)-1,3,4-oxadiazole]
3 |  |  |  | > 50000 | 241 | 207 | CC(=O)N1CCC(c2cn(Cc3ccc(-c4nnc(C(F)F)o4)cn3)nn2)CC1 [Compound 3811, 1-(4-(1-((5-(5-(difluoromethyl)-1,3,4-oxadiazol-2-yl)pyridin-2-yl)methyl)-1H-1,2,3-triazol-4-yl)piperidin-1-yl)ethan-1-one]
4 |  |  |  | > 50000 | 143 | 348 | CC(C)N1CCC(c2cn(Cc3ccc(-c4nnc(C(F)F)o4)cn3)nn2)CC1 [Compound 3808, 2-(difluoromethyl)-5-(6-((4-(1-isopropylpiperidin-4-yl)-1H-1,2,3-triazol-1-yl)methyl)pyridin-3-yl)-1,3,4-oxadiazole]
5 |  |  |  | > 50000 | 1106 | 45.2 | CCN1CC(N2CCC(c3cccc(-c4cn(Cc5ccc(-c6nnc(C(F)F)o6)cc5F)nn4)c3)CC2)C1 [Compound 4295, 2-(difluoromethyl)-5-(4-((4-(3-(1-(1-ethylazetidin-3-yl)piperidin-4-yl)phenyl)-1H-1,2,3-triazol-1-yl)methyl)-3-fluorophenyl)-1,3,4-oxadiazole]
6 |  |  |  | > 50000 | 4464 | 11.2 | FC(F)c1nnc(-c2ccc(Cn3cc(-c4ccc5[nH]cc(CN6CCOCC6)c5c4)nn3)cc2)o1 [Compound 4186, 4-((5-(1-(4-(5-(difluoromethyl)-1,3,4-oxadiazol-2-yl)benzyl)-1H-1,2,3-triazol-4-yl)-1H-indol-3-yl)methyl)morpholine]
7 |  |  |  | > 50000 | 294 | 170 | CC(C)(C)OC(=O)N1CCC(c2cn(Cc3ccc(-c4nnc(C(F)F)o4)cn3)nn2)C1 (stereo not drawn) [Compound 3820, Tert-butyl 3-(1-((5-(5-(difluoromethyl)-1,3,4-oxadiazol-2-yl)pyridin-2-yl)methyl)-1H-1,2,3-triazol-4-yl)pyrrolidin-1-carboxylate]
8 |  |  |  | > 50000 | 370 | 13.5 | Fc1cc(-c2nnc(C(F)F)o2)ccc1Cn1cc(-c2ccc(CNC3CCC3)cc2)nn1 [Compound 4468, N-(4-(1-(4-(5-(difluoromethyl)-1,3,4-oxadiazol-2-yl)-2-fluorobenzyl)-1H-1,2,3-triazol-4-yl)benzyl)cyclobutanamine]
9 | > 50000 | 1256 | 39.8 |  |  |  | Fc1cc(-c2nnc(C(F)F)o2)ccc1Cn1cc(-c2cccc(N3CCN(C4CCC4)CC3)c2F)nn1 [Compound 4579, 2-(4-((4-(3-(4-cyclobutylpiperazin-1-yl)-2-fluorophenyl)-1H-1,2,3-triazol-1-yl)methyl)-3-fluorophenyl)-5-(difluoromethyl)-1,3,4-oxadiazole]
10 |  |  |  | > 50000 | 116 | 429 | FC(F)c1nnc(-c2ccc(Cn3cc(C4CN(C5CCC5)C4)nn3)nc2)o1 [Compound 3954, 2-(6-((4-(1-cyclobutylazetidin-3-yl)-1H-1,2,3-triazol-1-yl)methyl)pyridin-3-yl)-5-(difluoromethyl)-1,3,4-oxadiazole]
11 |  |  |  | > 50000 | 1329 | 37.6 | Cc1cncc(-c2cn(Cc3ccc(-c4nnc(C(F)F)o4)cn3)nn2)c1 [Compound 3884, 2-(difluoromethyl)-5-(6-((4-(5-methylpyridin-3-yl)-1H-1,2,3-triazol-1-yl)methyl)pyridin-3-yl)-1,3,4-oxadiazole]
12 |  |  |  | > 50000 | 432 | 116 | O=S1(=O)CCN(Cc2cccc(-c3cn(Cc4ccc(-c5nnc(C(F)F)o5)cc4)nn3)c2)CC1 [Compound 4412, 4-(3-(1-(4-(5-(difluoromethyl)-1,3,4-oxadiazol-2-yl)benzyl)-1H-1,2,3-triazol-4-yl)benzyl)thiomorpholine 1,1-dioxide]
13 |  |  |  | > 50000 | 844 | 59.2 | CC(C)(C)OC(=O)N1CCC(c2cn(Cc3ccc(-c4nnc(C(F)F)o4)cn3)nn2)CC1 [Compound 3805, tert-butyl 4-(1-((5-(5-(difluoromethyl)-1,3,4-oxadiazol-2-yl)pyridin-2-yl)methyl)-1H-1,2,3-triazol-4-yl)piperidin-1-carboxylate]
14 |  |  |  | > 50000 | 1089 | 45.9 | CC(C)N1CCc2ccc(-c3cn(Cc4ccc(-c5nnc(C(F)F)o5)cc4F)nn3)cc2C1 [Compound 4365, 2-(difluoromethyl)-5-(3-fluoro-4-((4-(2-isopropyl-1,2,3,4-tetrahydroisoquinolin-7-yl)-1H-1,2,3-triazol-1-yl)methyl)phenyl)-1,3,4-oxadiazole]
15 | > 50000 | 640 | 78.1 |  |  |  | Fc1cc(-c2nnc(C(F)F)o2)cnc1Cn1cc(-c2ccc3c(c2)CN(C2CCC2)CC3)nn1 [Compound 19004]
16 |  |  |  | > 50000 | 244 | 205 | FC(F)c1nnc(-c2ccc(Cn3cc(CCc4cn5ccccc5n4)nn3)nc2)o1 [Compound 3822, 2-(difluoromethyl)-5-(6-((4-(2-(imidazo[1,2-a]pyridin-2-yl)ethyl)-1H-1,2,3-triazol-1-yl)methyl)pyridin-3-yl)-1,3,4-oxadiazole]
17 |  |  |  | > 50000 | 630 | 79.3 | FC(F)c1nnc(-c2ccc(Cn3cc(C4CCCC4)nn3)nc2)o1 [Compound 3846, 2-(6-((4-cyclopentyl-1H-1,2,3-triazol-1-yl)methyl)pyridin-3-yl)-5-(difluoromethyl)-1,3,4-oxadiazole]
18 |  |  |  | > 50000 | 154 | 324 | FC(F)c1nnc(-c2ccc(Cn3cc(-c4ccccc4-n4cncn4)nn3)nc2)o1 [Compound 4286, 2-(6-((4-(2-(1H-1,2,4-triazol-1-yl)phenyl)-1H-1,2,3-triazol-1-yl)methyl)pyridin-3-yl)-5-(difluoromethyl)-1,3,4-oxadiazole]
19 |  |  |  | > 50000 | 76 | 653 | CC(C)N1CC(c2cn(Cc3ccc(-c4nnc(C(F)F)o4)cn3)nn2)C1 [Compound 3952, 2-(difluoromethyl)-5-(6-((4-(1-isopropylazetidin-3-yl)-1H-1,2,3-triazol-1-yl)methyl)pyridin-3-yl)-1,3,4-oxadiazole]
20 |  |  |  | > 50000 | 837 | 59.7 | Fc1cc(-c2nnc(C(F)F)o2)ccc1Cn1cc(-c2cccc(CN3CC(F)(F)C3)c2)nn1 [Compound 4418, 2-(4-((4-(3-((3,3-difluoroazetidin-1-yl)methyl)phenyl)-1H-1,2,3-triazol-1-yl)methyl)-3-fluorophenyl)-5-(difluoromethyl)-1,3,4-oxadiazole]

Row | Compound | IC50 (human recombinant HDAC1; [1]) [nM] | HDAC6 selectivity (fold) (human recombinant HDAC6; HDAC6 over HDAC1) | IC50 (human recombinant HDAC6; [2]) [nM] | IC50 (human recombinant HDAC1; [3]) [nM] | HDAC6 selectivity (fold) (human recombinant HDAC6; HDAC1 IC50 / HDAC6 IC50) | IC50 (human recombinant HDAC6; [4]) [nM]
21 | CN1CCC(Nc2ccc(F)c(-c3cn(Cc4ccc(-c5nnc(C(F)F)o5)cc4F)nn3)c2)CC1 [Compound 4435, N-(3-(1-(4-(5-(difluoromethyl)-1,3,4-oxadiazol-2-yl)-2-fluorobenzyl)-1H-1,2,3-triazol-4-yl)-4-fluorophenyl)-1-methylpiperidin-4-amine] |  |  |  | > 50000 | 1677 | 29.8

Reference: patent US20230257372A1 (CHONG KUN DANG PHARMACEUTICAL CORP., priority 2020, published 2023)
